Test results reported in patent US4634707A, “5-Pyrimidinecarboxamides and treatment of leukemia and tumors therewith” (Uniroyal Chemical Company, priority 1984, dated 1987).
Where “and” joins values, the source holds several entries; their conditions need not be identical. Identical values can stand only once.

What was measured:
[1] = test system: CD8F1 mammary tumor; test: NCI 3CDJ2, s.c.-implanted staged mammary adenocarcinoma CD8F1; assay type: in vivo, murine (mice); design: key to Treated/Control percent: (-): toxic dose
Procedure: (§1) The spectrum of antitumor activity of the compound of Example 1 was determined employing a number of standard National Cancer Institute (NCI) protocols. The antitumor activity was determined in vivo against several different tumors, employing various treatment schedules and routes of administration.
(§2) The ratio of the survival time for the treated animals (T) to the survival time for the control animals (C) determined at varying dosages in the respective in vivo tests is set forth in the table: […]

[2] = test system: P388 leukemia; test: NCI 3PS31, i.p.-implanted P388 leukemia; assay type: in vivo, murine (mice); design: key to Treated/Control percent: (-): toxic dose
Procedure: as §1, §2

[3] = test system: L1210 leukemia; test: Effects of treatment schedule and route of administration against s.c.-implanted L1210 leukemia; assay type: in vivo
Procedure: The influences of treatment schedule and route of administration on the antitumor activity of the compound of Example 1 were evaluated using the s.c. implanted L1210 leukemia system. The drug was tested in the form of a freeze dried dosage form containing 50 mg. of the compound and 100 mg. N-methylglucamine, reconstituted with 5 ml. of sterile water to yield a 10 mg/ml. solution at about pH 9.5.
The percentage increases in life span (%ILS) are shown in the accompanying drawing for different treatment regimens and routes of administration. […] The highest percent ILS was 471 obtained by daily i.p. injections of the active material on a five day schedule of 45 mg/kg/injection, corresponding to a total dose of 225 mg/kg/duration of the treatment (test C in the drawing). This dosage also gave 5 cures.

[4] = test system: M5076 sarcoma; test: NCI 3M531, i.p.-implanted M5076 sarcoma; assay type: in vivo, murine (mice); design: key to Treated/Control percent: (-): toxic dose
Procedure: as §1
In three experiments involving the i.p. implanted M5076 sarcoma, maximum ILS values of 72, 72 and 48% were achieved after i.p. treatment on days 1, 5, 9 and 13.
as §2

[5] = test system: B16 melanoma; test: NCI 3B131, i.p.-implanted B16 melanoma; assay type: in vivo, murine (mice)
Procedure: as §1, §2

[6] = test system: Colon 38 tumor; test: NCI 3C872, s.c.-implanted colon 38 carcinoma; assay type: in vivo, murine (mice); design: key to Treated/Control percent: (-): toxic dose
Procedure: as §1, §2

[7] = test system: Lewis lung carcinoma; test: NCI 3LL39, i.v.-implanted Lewis lung carcinoma; assay type: in vivo, murine (mice)
Procedure: as §1, §2

[8] = test system: L1210 leukemia; test: NCI 3LE37, i.c.-implanted L1210 leukemia; assay type: in vivo, murine (mice); design: key to Treated/Control percent: (-): toxic dose
Procedure: as §1, §2

[9] = test system: L1210 leukemia; test: NCI 3LE32, s.c.-implanted L1210 leukemia; assay type: in vivo, murine (mice); design: key to Treated/Control percent: (-): toxic dose
Procedure: as §1, §2

[10] = test system: L1210 leukemia; test: NCI 3LE31, i.p.-implanted L1210 lymphoid leukemia; assay type: in vivo, DBA/2 mice
Procedure: as §1
Samples of the test compounds of Examples 1-10 and a number of structurally-related control compounds were tested in accordance with National Cancer Institute test protocol 3LE31 (NCI Protocol 1.100, Cancer Chemotherapy Reports Part 3, Vol. 3, No. 2, September 1972) to determine the effects of the several compounds on i.p.-implanted L1210 leukemia (J. Nat'l. Cancer Inst. 13(5):1328, 1953). Each test involved implantation of the leukemia cells in six DBA/2 mice, one sex per experiment, the male mice weighing a minimum of 18 grams and the female mice weighing a minimum of 17 grams, and all of the test animals being within a three gram weight range. The test compound was administered by i.p. injections, in 0.1 ml. doses of diluted ascitic fluid (10^5 cells per dose), commencing one day after the tumor implant and continuing daily for nine days.
The test animals were weighed and survivors recorded on a regular basis during a thirty day test period. The ratio of survival time for the treated and control animals (T/C) was determined as a percentage.
The tests were carried out at varying dosage levels and with varying numbers of repetitions, depending upon the results obtained with each test compoud. […] A reproducible T/C of 150% or higher is considered significant activity.
The number of mice "cured", viz., those surviving from each animal test group after the thirty day test period, is indicated in parenthesis following the T/C percentage data in Table III below: […]

[11] = test system: MX-1 mammary tumor; test: NCI 3MBG5, s.r.c. human mammary carcinoma MX-1 xenograft; assay type: in vivo, human tumor xenograft; design: key to Treated/Control percent: (-): toxic dose
Procedure: as §1, §2

[12] = 50 mg/kg, stated jointly for i.p. and s.c. L1210 systems
[13] = s.c. L1210, i.p. days 1-9 (Table I)
[14] = i.p. L1210, i.p. days 1-9 (Table I)

SMILES: O=C(Nc1ccccc1)c1c(O)[nH]c(=S)[nH]c1=O [Example 1, 1,2,3,4-tetrahydro-6-hydroxy-4-oxo-N-phenyl-2-thioxo-5-pyrimidinecarboxamide]
- Treated/Control percent ([1]; 56 mg/kg): 61%
- Treated/Control percent ([1]; 112 mg/kg): 80%
- Treated/Control percent ([1]; 225 mg/kg): (-)
- Treated/Control percent ([1]; 450 mg/kg): (-)
- Treated/Control percent ([1]; 900 mg/kg): (-)
- effectiveness (in words) ([1]; s.c. implanted CD8F1, experimental conditions employed): ineffective
- Treated/Control percent ([2]; 3.13 mg/kg): 110%
- Treated/Control percent ([2]; 6.25 mg/kg): 116%
- Treated/Control percent ([2]; 12.5 mg/kg): 120%
- Treated/Control percent ([2]; 25 mg/kg): 145% and 138%
- Treated/Control percent ([2]; 50 mg/kg): 162% and 194% and 201%
- Treated/Control percent ([2]; 100 mg/kg): (-)
- Treated/Control percent ([2]; 200 mg/kg): (-)
- increase in life-span (% ILS) ([2]; i.p. P388, 50 mg/kg i.p. daily, five days, maximum values): 101% and 94% and 62%
- activity (in words) ([2]; standard NCI P388 preliminary screen): good activity
- increases in life span by treatment and route (in words) ([3]; all treatments and routes, exceptions tests A and G (i.p. and i.v. one day, one injection)): increases in life span were noted using all treatments and routes of administration save for the i.p. and i.v. one day, one injection treatments
- substantial increases in life span (% ILS) ([3]; each route and schedule save single treatment i.p. and i.v.): > 25%
- toxicity (in words) ([3]; highest dose in each schedule, exception test F (i.p. every three hours on days one, five and nine)): toxicity was noted with the highest dose in each treatment schedule except for that involving i.p. administration every three hours on days one, five and nine of a nine day test
- cures ([3]; test C: daily i.p., five days, 45 mg/kg/injection): 5
- increase in life span (% ILS) ([3]; test C: daily i.p., five days, 45 mg/kg/injection, total 225 mg/kg): 471%
- cures ([3]; test I: oral daily for nine days, 124 mg/kg/injection): 4
- increase in life span (% ILS) ([3]; test I: oral daily for nine days, 124 mg/kg/injection, cumulative 1116 mg/kg): 452%
- Treated/Control percent ([4]; 12.5 mg/kg): 117%
- Treated/Control percent ([4]; 25 mg/kg): 101% and 130%
- Treated/Control percent ([4]; 50 mg/kg): 124% and 147%
- Treated/Control percent ([4]; 100 mg/kg): 148% and 172%
- Treated/Control percent ([4]; 200 mg/kg): (-)
- cures/total ([4]; i.p. M5076, Days 1-13): 2/10
- increase in life-span (% ILS) ([4]; i.p. M5076, i.p. treatment on days 1, 5, 9 and 13, maximum values): 72% and 48%
- Treated/Control percent ([5]; 6 mg/kg): 108%
- Treated/Control percent ([5]; 12 mg/kg): 128%
- Treated/Control percent ([5]; 25 mg/kg): 137% and 158%
- Treated/Control percent ([5]; 50 mg/kg): 152% and 169%
- Treated/Control percent ([5]; 100 mg/kg): 185% and 193%
- increase in life-span (% ILS) ([5]; i.p. B16, days 1-9 i.p., optimal values at 100 mg/kg, 100 mg/kg): 93% and 85%
- Activity (ILS) ([5]; over at least a 4-fold dosage range): 25%
- Treated/Control percent ([6]; 56 mg/kg): 70% and 120%
- Treated/Control percent ([6]; 225 mg/kg): 51%
- Treated/Control percent ([6]; 450 mg/kg): (-)
- Treated/Control percent ([6]; 900 mg/kg): (-)
- effectiveness (in words) ([6]; s.c. implanted colon 38, experimental conditions employed): ineffective
- Treated/Control percent ([7]; 12.5 mg/kg): 103%
- Treated/Control percent ([7]; 25 mg/kg): 106%
- Treated/Control percent ([7]; 50 mg/kg): 115%
- Treated/Control percent ([7]; 100 mg/kg): 126%
- effectiveness (in words) ([7]; i.v. implanted, experimental conditions employed): ineffective
- Treated/Control percent ([8]; 12.5 mg/kg): 94% and 106%
- Treated/Control percent ([8]; 25 mg/kg): 98%
- Treated/Control percent ([8]; 50 mg/kg): 113% and 108%
- Treated/Control percent ([8]; 100 mg/kg): 128% and 134%
- activity (in words) ([8]; 100 mg/kg i.p. daily for 9 days): marginal activity
- Treated/Control percent ([8]; 200 mg/kg): (-)
- increase in life-span (% ILS) ([8]; i.c. L1210, 100 mg/kg i.p. daily for 9 days): 28-34%
- Treated/Control percent ([9]; 12.5 mg/kg): 109% and 104%
- Treated/Control percent ([9]; 25 mg/kg): 108% and 99%
- Treated/Control percent ([9]; 50 mg/kg): 140% and 127%
- maximum increased life spans [9, 12]: 87-190%
- Treated/Control percent ([9]; 100 mg/kg): 300% and 254%
- cures in test at specified dose ([9]; 100 mg/kg): 5 and 3
- curative, share of test mice ([9]; 100 mg/kg i.p. daily for 9 days, s.c. L1210): at least 50%
- Treated/Control percent ([9]; 200 mg/kg): (-)
- cures/total [9, 13]: 5/6 and 3/6
- increase in life-span (% ILS) [9, 13]: > 200% and > 154%
- maximum increased life spans [10, 12]: 87-190%
- cures (in words) ([10]; 100 mg/kg): produced a number of cures at 100 mg/kg
- curative, share of test mice ([10]; 100 mg/kg i.p. daily for 9 days, i.p. L1210): at least 50%
- toxicity of 100 mg/kg dose ([10]; 100 mg/kg i.p. daily for 9 days, i.p. system): occasionally demonstrated some toxicity
- activity in i.p.-implanted lymphoid leukemia test (in words) ([10]; 3LE31, reproducible T/C of 150% or higher is considered significant activity): exhibited significant activity
- response vs control in vivo at 6.25 mg/kg ([10]; Mus musculus, L1210, ip, 6.25 mg/kg i.p. daily for nine days, read-out: T/C % (survival time treated/control)): 116%
- response vs control in vivo at 12.5 mg/kg ([10]; Mus musculus, L1210, ip, 12.5 mg/kg i.p. daily for nine days, read-out: T/C % (survival time treated/control)): 117%
- cures/total [10, 14]: 4/6 and 6/6
- increase in life-span (% ILS) [10, 14]: > 275% and > 229%
- Treated/Control percent ([11]; 75 mg/kg): 98%
- Treated/Control percent ([11]; 150 mg/kg): (-)
- Treated/Control percent ([11]; 300 mg/kg): (-)
- Treated/Control percent ([11]; 600 mg/kg): (-)
- effectiveness (in words) ([11]; s.r.c. xenograft, experimental conditions employed): ineffective
